In ChEMBL document CHEMBL1150542, “Enzymatic synthesis and antiviral ativity of 2-deoxy-2-fluoro-ribavirin” (Bioorg Med Chem Lett, 1996):
The source made the active and inactive calls.

Columns and labels:
Human alphaherpesvirus 2 = experiment: Compound was tested for antiviral activity against HSV-2; Not active; assay type: functional, organism-based
[1] = tested on: Human immunodeficiency virus 1; experiment: Compound was tested for antiviral activity against HIV-1; Not active; assay type: functional
Human betaherpesvirus 5 = experiment: Compound was tested for antiviral activity against HCMV; Not active; assay type: functional, organism-based
MDCK [2] = experiment: Compound was tested for antiviral activity against influenza A in MDCK cells at concentration of 100 uM; Not active; assay type: functional, cell-based; conditions: Canis lupus familiaris
MDCK [3] = experiment: Compound was tested for antiviral activity against influenza B in MDCK cells at concentration of 100 uM; Not active; assay type: functional, cell-based; conditions: Canis lupus familiaris
Human alphaherpesvirus 3 = experiment: Compound was tested for antiviral activity against VZV; Not active; assay type: functional, organism-based

Measured: Activity

NC(=O)c1ncn(C2O[C@H](CO)C(O)[C@H]2F)n1 (single isomer, unassigned)
inactive: all assays above

NC(=O)c1ncn([C@@H]2O[C@H](CO)C(O)[C@H]2F)n1 (single isomer, unassigned)
inactive: all assays above
